# Patent US20060040945A1, “Annellated pyrrole compounds as proton pump inhibitors for treating ulcer” (MERCKLE GMBH, priority 2002, published 2006)
# Read-outs that look alike come from different tables or passages of the source.
# What was measured:
# gastric H,K-ATPase [1] = molecular target: T1, gastric H,K-ATPase (Sus scrofa, UniProt P19156); assay: K+-stimulated, SCH28080-sensitive H,K-ATPase activity of pig gastric microsomes (32Pi release from ATP); format: biochemical; conditions: for effect on H,K-ATPase activity: non-physiological concentrations greater than 10^−7 M; for inhibitory activity against H,K-ATPase: physiological concentrations (10^−9-10^−8 M); for inhibitory effect on microsomal H,K-ATPase activity: concentrations up to 10^−4 M; for IC50: pig gastric microsomes, pH 7.0, 20 minutes at 37° C., read-out: half-maximal inhibitory concentration (IC50), H,K-ATPase activity
# T1 construct: Reaction mixtures for assay of K^+-stimulated ATPase activity in pig gastric microsomal membranes contained 5 μg membrane protein; from tissue; host or cells: pig gastric fundic mucosa, G1 microsomal fraction
# T1 sequence (P19156 2-1034 limits assumed): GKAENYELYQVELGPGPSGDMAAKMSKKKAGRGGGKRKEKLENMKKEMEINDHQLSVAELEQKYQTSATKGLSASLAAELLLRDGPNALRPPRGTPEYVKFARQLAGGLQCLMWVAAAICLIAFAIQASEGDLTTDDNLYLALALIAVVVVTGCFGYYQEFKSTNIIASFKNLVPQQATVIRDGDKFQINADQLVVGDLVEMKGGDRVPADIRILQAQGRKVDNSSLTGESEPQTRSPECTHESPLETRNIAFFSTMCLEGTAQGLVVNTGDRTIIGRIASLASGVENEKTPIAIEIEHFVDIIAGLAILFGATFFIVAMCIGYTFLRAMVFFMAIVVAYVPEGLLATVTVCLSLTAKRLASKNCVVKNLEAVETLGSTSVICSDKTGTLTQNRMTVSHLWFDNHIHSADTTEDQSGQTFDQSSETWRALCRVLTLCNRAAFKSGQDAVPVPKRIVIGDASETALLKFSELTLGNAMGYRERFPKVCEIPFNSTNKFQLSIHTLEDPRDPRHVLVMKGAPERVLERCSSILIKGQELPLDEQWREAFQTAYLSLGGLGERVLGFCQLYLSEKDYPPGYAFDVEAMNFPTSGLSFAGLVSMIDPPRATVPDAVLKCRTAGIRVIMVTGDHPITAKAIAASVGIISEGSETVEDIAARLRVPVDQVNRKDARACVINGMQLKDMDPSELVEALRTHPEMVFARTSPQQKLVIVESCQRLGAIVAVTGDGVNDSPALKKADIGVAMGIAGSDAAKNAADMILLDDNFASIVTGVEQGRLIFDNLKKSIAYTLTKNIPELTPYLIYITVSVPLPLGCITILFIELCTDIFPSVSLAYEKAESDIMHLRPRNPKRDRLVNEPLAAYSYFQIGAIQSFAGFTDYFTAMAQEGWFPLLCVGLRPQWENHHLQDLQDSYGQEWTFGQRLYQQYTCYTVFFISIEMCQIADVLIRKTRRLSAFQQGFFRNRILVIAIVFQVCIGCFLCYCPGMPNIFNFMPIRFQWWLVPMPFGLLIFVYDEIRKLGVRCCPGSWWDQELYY
# T1 sequence (P18434 whole entry partner): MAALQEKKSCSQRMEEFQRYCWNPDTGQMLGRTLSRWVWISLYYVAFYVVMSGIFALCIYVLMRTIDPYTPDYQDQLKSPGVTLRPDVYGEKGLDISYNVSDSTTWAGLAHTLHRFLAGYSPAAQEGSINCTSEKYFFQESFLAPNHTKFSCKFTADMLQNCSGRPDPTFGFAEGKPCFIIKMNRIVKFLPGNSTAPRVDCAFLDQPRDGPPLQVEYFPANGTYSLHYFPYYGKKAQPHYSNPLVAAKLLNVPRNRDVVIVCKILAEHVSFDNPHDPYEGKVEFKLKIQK
# Method: Strategy. Microsomal gastric H,K-ATPase was prepared from pig gastric mucosal homogenates by differential centrifugation. Briefly, pig stomachs obtained at a slaughter-house within 1 hour post mortem were washed with ice-cold 0,25 M sucrose and the fundus was dissected from the cardiac and antral regions. All subsequent prodedures were at 4° C. The mucosa was flooded with saturated NaCl, and the surface mucus and superficial cells wiped off with paper towels. The mucosa was scraped from the underlying connective tissue, suspended (10% w/v) in isolation buffer (0,25 M sucrose, 20 mM HEPES, pH 7,4, 1 mM EDTA, 1 mM phenylmethylsulfonyl fluoride), and disrupted by two 10 second bursts at maximum power in a Tissumizer (Tekmar, Cincinnati, Ohio). The homogenate was centrifuged at 20,000 g for 30 minutes, and the supernatant was centrifuged at 10^5 g for 1 hour. The resulting microsomal pellet was resuspended in isolation buffer, and applied to a discontinuous gradient of 7% w/v Ficoll and 34% sucrose (both in isolation buffer). After 3 hours at 32,500 rpm (Sorvall AH 629 rotor), the microsomal band (G1) recovered from the 7% Ficoll interface was resuspended to 10 mg/ml in 15 mM PIPES-Tris, pH 6,8, diluted 1:1 with cold 60% sucrose, lyophilized in 0,5 ml aliquots, and stored at −70° C. Gl microsomes were about 0,1 microns in diameter, were enriched in H.K.-ATPase activity, and more than 80% of their protein content banded at 94 kDa by SDS-PAGE. ATP hydrolytic activity of microsomes was quantitated in terms of inorganic phosphate release from substrate ATP and measured in graded concentrations (ranging from 10^−9M to 10^−4M) of ML 3000, and a wide range of other compounds. Reaction mixtures for assay of K^+-stimulated ATPase activity in pig gastric microsomal membranes contained 5 μg membrane protein, 100 mM Tris-acetate, pH 7.0, 1 mM MgCl2, 1 mM NaNa, 0,1 mM EGTA, 5 μM ATP (γ-^32P-ATP, 10 Ci/mmol, NEN, Boston, Mass.), 0-10 mM KCl, and 0-100 μM SCH 28080. After 20 minutes incubation at 37° C., reactions were stopped by addition of 10% w/v activated charcoal (Sigma), 5,5% w/v trichloroacetic acid, vortexed vigorously, and centrifuged at 14,000 g for 10 minutes at 4° C. Inorganic phosphate (γ-^32Pi) content of the supernatant was measured by scintillation counting. […] Graphs with standard error bars present inter-assay data variance in three independent assays in each of which ATPase activities in three separate but identical reaction conditions were measured. Graphs without standard error bars represent the mean ATPase activities in three separate but identical reaction conditions in one of at least three independent assays; typical data are shown in these cases.
# The wide range of published PPI IC50 values for microsomal H,K-ATPase reflects the mechanistic necessity for compound acidification to allow formation of a thiol-reactive […] intermediate which then irreversibly derivatizes H,K-ATPase a subunit cysteine residues leading to enzyme inhibition. […] Microsomal vesicle preparations vary widely in their ion-tightness, which affects the extent to which internal pH can be lowered by H,K-ATPase turnover, and therefore the extent to which omeprazole diffusing into the vesicle can be acidified and activated. Alternatively, prior in vitro acidification of omeprazole ensures induction of its inhibitory properties, and is essential in assays carried out using ion-permeable microsomal H,K-ATPase preparations. For this reason, the omeprazole inhibitory data shown in FIG. 2 were derived using omeprazole acidified to pH 6.1 and incubated with the enzyme for 30 min at the same pH (8).
# Given that PPIs are irreversible inhibitors of H,K-ATPase activity, covalently binding to the catalytic α-subunit, it was determined whether ML 3000 inhibition of H,K-ATPase was reversible or irreversible. […]
# gastric H,K-ATPase [2] = conditions: cited from earlier work; for IC50: literature (refs 6, 7), read-out: published IC50, H,K-ATPase
# [3] = system: human gastric adenocarcinoma (AGS) cells; assay: IL-8 secretion by AGS cells into culture medium (ELISA); format: cell-based; conditions: 6 hr
# [4] = Plasma ML3000 level after immediate release dosage forms; format: in vivo; conditions: immediate release dosage form
# [5] = system: rabbit gastric parietal cells; assay: [14C]-aminopyrine (acid) accumulation in isolated gastric parietal cells; format: cell-based; conditions: for IC50: Oryctolagus cuniculus; for effect on acid accumulation by isolated rabbit parietal cells: up to concentrations of 10^−4 M
# Method: Strategy. Gastric parietal cells were isolated from New Zealand White Rabbits by pronase/collagenase digestion of fundic mucosa followed by enrichment of cells on discontinuous Nycodenz gradients in a manner known per se. Aminopyrine accumulation into parietal cells was assessed in 96 well filter plates with Durapore membranes. […] All determinations were performed in quadruplicate. Basal aminopyrine accumulation was determined as aminopyrine accumulation into […] (a reflection of non-specific isotope trapping).
# gastric H,K-ATPase [6] = molecular target: T1, gastric H,K-ATPase; assay: K+-stimulated, SCH28080-sensitive H,K-ATPase activity of pig gastric microsomes (32Pi release from ATP); format: biochemical; conditions: concentrations up to 10^−3 M
# [7] = AGS cells without IL-1β stimulation, read-out: IC50, baseline IL-8 secretion
structure (smiles),measurement,setting,value
"CCCCC/C=C\C\C=C/C=C/C=C/[C@@H](SC[C@H](N)C(=O)NCC(=O)O)[C@@H](O)CCCC(=O)O [LTD4, leukotriene D4]","effect on H,K-ATPase activity","gastric H,K-ATPase [1]","significant attentuation of H,K-ATPase activity"
same,"inhibitory activity against H,K-ATPase","gastric H,K-ATPase [1]",neither leukotriene showed any inhibitory activity
Cc1c(OCC(F)(F)F)ccnc1C[S+]([O-])c1nc2ccccc2[nH]1 (centres unmarked) [lansoprazole],IC50,"gastric H,K-ATPase [2]",2.1 µM
COC1(c2cc(F)cc(OCc3ccc4c(ccc(=O)n4C)c3)c2)CCOCC1 [ZD-2138],IC50,[3]; [7],~0.4 µM
same,inhibition at 10 µM,"gastric H,K-ATPase [1]; at 10^−5 M",~20%
COc1ccc2cc([C@H](C)C(=O)O)ccc2c1 [naproxen],"inhibitory effect on microsomal H,K-ATPase activity","gastric H,K-ATPase [1]",without inhibitory effects
"CCCCC/C=C\C[C@@H](O)/C=C/C=C/C=C\[C@@H](O)CCCC(=O)O [LTB4, leukotriene B4]","effect on H,K-ATPase activity","gastric H,K-ATPase [1]","significant attentuation of H,K-ATPase activity"
same,"inhibitory activity against H,K-ATPase","gastric H,K-ATPase [1]",neither leukotriene showed any inhibitory activity
"CC1(C)Cc2c(-c3ccccc3)c(-c3ccc(Cl)cc3)c(CC(=O)O)n2C1 [ML 3000, [6-(4-chlorophenyl)-2,2-dimethyl-7-phenyl-2,3-dihydro-1H-pyrrolizine-5-yl]-acetic acid]",plasma ML3000 concentration maintained for 8 hours,[4]; dose 2.5 mg/kg,above 100 ng/mL
same,plasma ML3000 concentration maintained for 8 hours,[4]; dose 5 mg/kg,> 200 ng/mL
same,IC50,[3]; [7],0.75 µM
same,IC50,"[3]; AGS cells, IL-1β (20 ng/ml), read-out: IC50, IL-1β-stimulated IL-8 secretion",30 µM
same,"reversibility of H,K-ATPase inhibition on dilution","gastric H,K-ATPase [1]; diluted from 100 μM to 3.3 μM","restored H,K-ATPase activity"
same,"effect of acidification on H,K-ATPase inhibitory profile","gastric H,K-ATPase [1]; half-maximal inhibitory concentration titrated to different pHs",no significant effect
same,IC50,"gastric H,K-ATPase [1]",15 µM
same,IC50,"[5]; 100 μM histamine, read-out: IC50, histamine-stimulated acid accumulation",40 µM
same,IC50,"[5]; read-out: IC50, forskolin-stimulated acid accumulation",~45 µM
CS(=O)(=O)Nc1ccc([N+](=O)[O-])cc1OC1CCCCC1 [NS 398],"inhibitory effect on microsomal H,K-ATPase activity","gastric H,K-ATPase [1]",without inhibitory effects
same,effect on acid accumulation by isolated rabbit parietal cells,[5],no effect
CCCCC/C=C\C/C=C\C/C=C\C/C=C\CCCC(=O)O [Arachidonic acid],IC50,"gastric H,K-ATPase [1]",30 µM
CCCCC[C@H](O)/C=C/[C@H]1[C@H](O)CC(=O)[C@@H]1C/C=C\CCCC(=O)O [prostaglandin E2],IC50,"gastric H,K-ATPase [1]",45 µM
COc1ccc2c(c1)c(CC(=O)O)c(C)n2C(=O)c1ccc(Cl)cc1 [indomethacin],Ki,"gastric H,K-ATPase [2]; previously reported (ref 10)",670 µM
same,"inhibitory effect on microsomal H,K-ATPase activity","gastric H,K-ATPase [1]",without inhibitory effects
CC(=O)Oc1ccccc1C(=O)O [acetyl salicylic acid],"inhibitory effect on microsomal H,K-ATPase activity","gastric H,K-ATPase [6]",without inhibitory effects
same,effect on acid accumulation by isolated rabbit parietal cells,[5],no effect
COC(=O)c1cc2nc([S+]([O-])Cc3ncccc3C)[nH]c2cc1C (centres unmarked) [picoprazole],IC50,"gastric H,K-ATPase [2]",2 µM
